# From publication PMC12928700, “Structure of the human CTF18−RFC clamp loader bound to PCNA” (eLife, 2026)
# Experiments:
# [1] = target: T1, CTF18–RFC bound to PCNA (ADP site in RFC3) (Homo sapiens, UniProt P40938); assay: cryo-EM structure ([…] Å without Mg2+; […] Å with Mg2+); type: binding; settings: ADP in AAA+ site of RFC3, not added, probably co-purified; seen with and without Mg2+
# T1 construct: same complex as P1; RFC3 with N-terminal His6 tag, insect cells; Ctf8/Dcc1 module not resolved in map; with Chromosome transmission fidelity protein 18 homolog; Replication factor C subunit 2; Replication factor C subunit 4; Replication factor C subunit 5; Sister chromatid cohesion protein DCC1; Chromosome transmission fidelity protein 8 homolog; Proliferating cell nuclear antigen
# [2] = target: T2, CTF18–RFC bound to PCNA (ATP sites in Ctf18, RFC2, RFC5) (Homo sapiens, UniProt P35250+P40937+Q8WVB6); assay: as above; type: binding; settings: ATP in AAA+ sites of Ctf18 (adenine density poor), RFC2 and RFC5; RFC4 empty; 0.5 mM ATP, pH 7.5, without Mg2+ or with 5 mM Mg2+ (Mg2+ seen in RFC2 and RFC5); autoinhibited state, closed PCNA
# T2 construct: gene CHTF18; seven-subunit complex from insect cells (MultiBac, Sf9/Hi5); N-terminal twin-Strep-TEV tag (Ctf18, RFC2, RFC4) and N-terminal His6 tag (RFC3, RFC5, Dcc1, Ctf8), TEV treated; PCNA from E. coli; Ctf8/Dcc1 module not resolved in map; with Replication factor C subunit 4; Replication factor C subunit 3; Sister chromatid cohesion protein DCC1; Chromosome transmission fidelity protein 8 homolog; Proliferating cell nuclear antigen
Compound,cryo-EM structure (2.9 Å without Mg2+; 3.2 Å with Mg2+) [1],cryo-EM structure (2.9 Å without Mg2+; 3.2 Å with Mg2+) [2]
Nc1ncnc2c1ncn2[C@@H]1O[C@H](COP(=O)(O)OP(=O)(O)O)[C@@H](O)[C@H]1O [ADP],while ADP appears to engage RFC3,
Nc1ncnc2c1ncn2[C@@H]1O[C@H](COP(=O)(O)OP(=O)(O)OP(=O)(O)O)[C@@H](O)[C@H]1O [ATP],,"ATP is bound to subunits Ctf18, RFC2, and RFC5, while ADP appears to engage RFC3"
